# Data: patent US9056865B2, “Pyridine-2-derivatives as smoothened receptor modulators” (Pfizer Inc., priority 2010, dated 2015)
# Legend:
# Gli-Luc/MEF cells = test: Gli-Luc/MEF assay; assay type: cell-based, mouse; details: Mus musculus, MEF; Shh-stimulated luciferase, 48 hours
# Procedure, shortened: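 Shh-stimulated luciferase readout (Bright-Glo) after 48 h, 37 °C, 5% CO2, used to derive IC50 of inhibition. Gli-Luc transgenic mouse MEFs received test compounds at final […] in 3-fold dilutions, with recombinant mouse Shh added immediately at final 2 μg/mL.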
# human Smo = human Smo (Homo sapiens (Human), UniProt Q99835); test: Smo radioligand competition binding assay
# human Smo, sequence (Q99835 181-787): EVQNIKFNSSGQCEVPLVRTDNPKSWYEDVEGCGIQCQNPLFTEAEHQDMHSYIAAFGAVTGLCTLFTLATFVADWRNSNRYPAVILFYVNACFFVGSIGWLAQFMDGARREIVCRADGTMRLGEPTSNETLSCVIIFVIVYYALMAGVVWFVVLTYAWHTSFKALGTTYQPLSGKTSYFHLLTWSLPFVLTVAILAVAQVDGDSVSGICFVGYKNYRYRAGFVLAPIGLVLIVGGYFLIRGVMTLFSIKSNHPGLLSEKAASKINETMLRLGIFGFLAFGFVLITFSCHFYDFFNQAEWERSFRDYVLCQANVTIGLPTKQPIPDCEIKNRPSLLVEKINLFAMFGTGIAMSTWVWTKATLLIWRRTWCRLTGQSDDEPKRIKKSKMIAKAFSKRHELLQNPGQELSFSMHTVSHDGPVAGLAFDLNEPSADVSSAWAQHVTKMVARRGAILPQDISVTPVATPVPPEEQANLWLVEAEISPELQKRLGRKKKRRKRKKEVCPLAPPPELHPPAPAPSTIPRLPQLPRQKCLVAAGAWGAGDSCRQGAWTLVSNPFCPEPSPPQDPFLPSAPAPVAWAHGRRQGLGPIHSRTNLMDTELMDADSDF
# Procedure, shortened: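 Membranes from HEK293 cells expressing surface human Smo 181-781 (40 μg protein/well) incubated 2 h at room temperature with test compound and tritiated Smo antagonist (3 nM), pH 7.5 Tris buffer; filtration and scintillation counting. Non-specific binding defined with 30 μM cold antagonist; IC50 from four-parameter sigmoidal fit.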
smiles,measurement,setting,value
"Cc1ccc(-c2cccc(N3CCC(NS(C)(=O)=O)CC3)n2)nc1 [Example A-115, N-[1-(5′-methyl-2,2′-bipyridin-6-yl)piperidin-4-yl]methanesulfonamide]",IC50,Gli-Luc/MEF cells,16 nM
same,IC50,human Smo,22 nM
same,inhibition at 0.05 µM,"human Smo; 0.05 μM test compound, read-out: Smo % inh. @ 0.05 μM",93%
